# Data taken from patent US10857123B2, “NLRP3 inhibitors for the treatment of inflammatory skin disorders” (GALDERMA RESEARCH & DEVELOPMENT, priority 2016, dated 2020).
# Tests used:
# [1] = tested on: Mouse Atopic Dermatitis Model; test: Mouse atopic dermatitis model (epicutaneous sensitization with Dermatophagoides pteronyssinus allergen); type: in vivo, Balb/c mice; settings: for Insensible water loss (IWL) decrease / Thickness of the epidermis (epidermal acanthosis) change / Inflammatory score reduction: day 51; for Insensible water loss (IWL) decrease: FIG. 1; for Thickness of the epidermis (epidermal acanthosis) change: FIG. 2; for Inflammatory score reduction: FIG. 3
# Experimental: Example 1: Protocol for Testing an NLRP3 Antagonist (N-((1,2,3,5,6,7-hexahydro-s-indacen-4-yl)carbamoyl)-4-(2-hydroxypropan-2-yl)furan-2-sulfonamide, Compound 3, Also Known as MCC950) on a Mouse Atopic Dermatitis Model
# Female Balb/c mice were treated with the allergen Dermatophagoides pteronyssinus (DERP) in 3 cycles of epicutaneous sensitization (per patch) on the abdominal skin with 2 patches applied twice a week, followed by 2 weeks of rest, for 7 weeks. Topical treatments with an NLRP3 antagonist (compound 3, 2% in an acetone carrier) or a corticosteroid (0.1% betamethasone valerate, used as a control) were carried out 3 times over the course of the third and final week of sensitization (on days 44, 47 and 50).
# An inflammatory reaction was induced by epicutaneous sensitization with patches impregnated with 100 μg of allergen in a sterile saline solution (Dermatophagoides pteronyssinus or DERP) or with a carrier applied to the abdominal skin 24 hours after shaving and left for three periods of 1 week (with a change of patch in the middle of the week), with a gap of 2 weeks between applications.
# For the systemic route, the NLRP3 antagonist was administered intravenously, 200 μl, 2.5 mg/ml once a day, for the final series of epicutaneous sensitization with the allergen (D44 to D50).
# For the topical administration, the test antagonist (compound 3) was formulated at 2% in an acetone carrier, applied to the sensitized skin 2 hours before the DERP patches were put in place. The topical treatments with an NLRP3 antagonist or a corticosteroid (used as a control) were carried out 3 times over the course of the third and final week of sensitization (on days 44, 47 and 50). At the time the final patch was removed (day 51), the skin and blood samples were collected.
# The IWL is measured using a Tewameter on an animal the day before day 51. The Tewameter® probe measures the gradient of density of the evaporation of water from the skin indirectly by means of two sensors (temperature and relative humidity) inside a hollow cylinder. A microprocessor analyzes the values and expresses the evaporation rate in g/h/m^2.
# The thickness of the epidermis is measured by histological morphometric analyses on sections 6 μm thick, stained with hematoxylin eosin (HE), originating from skin samples fixed beforehand in […].
# The inflammatory score is defined visually on the basis of predefined dryness, skin rash, baldness, excoriation and lichenification scales. The mean of the five scores given to one individual mouse on a given day indicates the clinical score given on the specific day.
# [2] = tested on: Mouse Psoriasiform Model; test: Mouse psoriasiform model (imiquimod / Aldara-induced skin inflammation); type: in vivo, Balb/c mice; settings: topical, 3% in acetone, once a day 2 h before Aldara, FIG. 4
# Experimental: Example 2: Protocol for Testing an NLRP3 Antagonist (N-((1,2,3,5,6,7-hexahydro-s-indacen-4-yl)carbamoyl)-4-(2-hydroxypropan-2-yl)furan-2-sulfonamide, Compound 3, Also Known as MCC950) on a Mouse Psoriasiform Model
# The treatment protocol consists of a daily topical application of Aldara® (3.18 mg of imiquimod) for 7 days to the shaved skin of Balb/c mice. The NLRP3 antagonist was dissolved in 3% acetone and was applied once a day 2 h before the treatment with Aldara®. The clinical score is an overall classification resulting from the sum of the erythema, edema and desquamation scores, on the basis of the overall evaluation by the physician of the Lattice system, known as LS PGA (J Am Acad Dermatol. 2004 October; 51(4):563-9).
# Indeed, imiquimod induces inflamed scaly skin lesions resembling the psoriasis plaque. These lesions are associated with increased epidermal proliferation, abnormal differentiation, an epidermal accumulation of neutrophils in […], neoangiogenesis and infiltrates consisting of CD4+ T cells, of CD11c (+) dendritic cells and of plasmacytoid dendritic cells. Imiquimod induces an epidermal expression of IL-23, IL-17A and IL-17F, and also an increase in Th17 spleen cells. […]
# [3] = systemic route (intravenous, 200 μl, 2.5 mg/ml once a day, D44 to D50)
# [4] = topical route (2% in acetone carrier, days 44, 47 and 50)
smiles,measurement,setting,value
"CC(C)(O)c1coc(S(=O)(=O)NC(=O)Nc2c3c(cc4c2CCC4)CCC3)c1 [Compound 3, N-((1,2,3,5,6,7-hexahydro-s-indacen-4-yl)carbamoyl)-4-(2-hydroxypropan-2-yl)furan-2-sulfonamide]",Insensible water loss (IWL) decrease,[1]; [3],−60%
same,Thickness of the epidermis (epidermal acanthosis) change,[1]; [3],−38%
same,Inflammatory score reduction,[1]; [3],−62%
same,Insensible water loss (IWL) decrease,[1]; [4],−42%
same,Thickness of the epidermis (epidermal acanthosis) change,[1]; [4],−24%
same,Inflammatory score reduction,[1]; [4],−39%
same,Efficacy compared with corticosteroid treatment,"[1]; versus 0.1% betamethasone valerate, the corticosteroid control",quite close to the treatment with corticosteroids
same,Reduction of imiquimod-induced skin inflammation on the basis of the clinical score,[2]; day 4,−36%
same,Reduction of imiquimod-induced skin inflammation on the basis of the clinical score,[2]; day 5,−27%
